The values that follow come from PMC12196235, “Enhancing the Pharmacological Properties of Triterpenes Through Acetylation: An Anticancer and Antioxidant Perspective” (Molecules, 2025).

Several values for one entry are separate records, joined by “and”; a condition that tells them apart may be missing. Equal values may be shown once. Read-outs that look alike come from different tables or passages of the source.

In experiment [1] the test system is SKOV-3. The experiment in a line: Apoptosis assay (Cell Death Detection ELISA Plus), SKOV-3. It counts as cell-based, human. The method, then:
(§1) The induction of apoptosis by tested compounds was determined with Cell Death Detection ELISA Plus from Roche Diagnostics GmbH (Mannheim, Germany).
(§2) Cell Death Detection ELISA Plus is an enzyme immunoassay for determining cytoplasmic histone-associated DNA fragments (mono- and […]) after induced cell death. Cells (10^4) were pipetted into wells of 96-well plates, and test compounds were added at final concentrations of 0.1, 1.0 and 10.0 µg × mL^−1. Cells incubated in the absence of test compounds served as negative controls. After 4 h of incubation, cells were harvested by centrifugation of the plates for 10 min at 200× g. Supernatants were removed carefully, and cell pellets were resuspended in 200 µL of cell lysis buffer and incubated for 30 min at room temperature. After centrifugation of the plates (10 min at 200× g), 20 µL of cell lysates was transferred in duplicate into wells of provided streptavidin-coated microplates. Then, 80 µL of the immunoreagent containing a mixture of anti-histone-biotin monoclonal antibody and anti-DNA-peroxidase monoclonal antibody was added to each well. The microplates were covered with a provided adhesive foil and incubated for 2 h at room temperature. Thereafter, the solution in the wells was removed by tapping the microplate. The wells were rinsed three times with incubation buffer, and 100 µL of substrate (2,2′-azino-bis [3-ethylbenzothiazoline-6-sulphonic acid], ABTS) was added to each well. After 10–20 min, 100 µL of ABTS stop solution was pipetted to each well, and the absorbance was read at 405 nm (test wavelength) and 490 nm (reference wavelength). The apoptotic index was calculated based on the enrichment of mono- and oligonucleosomes according to the following equation:apoptotic index = [{A405(sample) − A490(sample)}/{A405(negative control) − A490(negative control)}]

Experiment [2] relates to T-47D (human breast carcinoma). As to conditions: cited from earlier work; for IC50: read-out: anticancer IC50 (T-47D).
Experiment [3] is described as follows: DPPH antioxidant assay. The following applies: calculated from Trolox standard curve. Summed up:
(§3)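 The CUPRAC reagent was made from 7.5 mM neocuproine, 10 mM CuCl2 and ammonium acetate buffer pH 7.0; the DPPH reagent was a 0.2 mM solution. Both were read spectrophotometrically in plates. Activity is given as % inhibition and as Trolox equivalents from standard curves.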

Experiment [4] can be described thus: CUPRAC antioxidant assay. As to conditions: calculated from Trolox standard curve. The procedure, abridged: as §3
Experiment [5] concerns SFV (Semliki Forest virus). More on the design: method as in PMID 19839605. As to conditions: ref 43; read-out: antiviral IC50 (SFV); cited from earlier work.
For experiment [6], the system named is SW-707 (human colon carcinoma). The following applies: ref 49, cited from earlier work.
In experiment [7] the test system is TE-671 (human rhabdomyosarcoma–medulloblastoma). As to conditions: ref 47; read-out: anticancer IC50 (TE-671); cited from earlier work.
Experiment [8] concerns A-549 (human lung carcinoma). The experiment in a line: MTT assay, A-549. The class given is cell-based. The procedure, abridged:
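MTT viability assay; formazan signal taken as proportional to live cells. HDF were kept in Fibroblast Basal Medium, HeLa in DMEM, MCF-7/A-549 in RPMI 1640.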
A general note: Formazan colour is commonly taken as a measure of viable cells.

Experiment [9] has as its system PC-3 (human prostate carcinoma). The experiment in a line: MTT assay, PC-3. It counts as cell-based.
The subject of experiment [10] is KB (human oral squamous carcinoma). Nature of the experiment: MTT assay, KB. The class given is cell-based.
Experiment [11] concerns PC-3. The experiment in a line: Apoptosis assay (Cell Death Detection ELISA Plus), PC-3. It counts as cell-based, human. The following applies: PC-3, 4 h incubation, enrichment of mono- and oligonucleosomes vs negative control. The method, then: as §1, §2
For orientation: An ELISA detects its analyte on a solid surface through an enzyme-linked reagent.

Experiment [12] concerns SKOV-3 (human ovarian carcinoma). The experiment in a line: MTT assay, SKOV-3. It counts as cell-based.
Experiment [13] relates to SK-N-AS (human neuroblastoma). The following applies: ref 47; read-out: anticancer IC50 (SK-N-AS); cited from earlier work.
Experiment [14] has as its system HPGBM (human glioblastoma multiforme). The following applies: ref 47; read-out: anticancer IC50 (HPGBM); cited from earlier work.
In experiment [15] the test system is HPCC (human cervical carcinoma). The following applies: ref 47; read-out: anticancer IC50 (HPCC); cited from earlier work.

For orientation: IC50 means the concentration that inhibits the measured activity by half. As for `C=C(C)[C@@H]1CC[C@]2(CO)CC[C@]3(C)[C@H](CC[C@@H]4[C@@]5(C)CC[C@H](O)C(C)(C)[C@@H]5CC[C@]43C)[C@@H]12` [5a, betulin], the mean apoptotic index in experiment [1] (0.1 µg/mL, mean over SKOV-3 and PC-3) amounted to 5.54. Further, the “Apoptotic index (AI), SKOV-3” value in experiment [1] (SKOV-3, 4 h incubation, enrichment of mono- and oligonucleosomes vs negative control) is 5.26 (0.03). Also, the IC50 in [2] (ref 47) was 5.2 µM; in experiment [2] (ref 49), 73.2 µM; in [5] it was 45.5 µM; in experiment [6] (read-out: anticancer IC50 (SW-707)), 51.7 µM; in [7], 10.3 µM; in experiment [8] (Homo sapiens, A549, MTT assay, A-549, read-out: IC50 (±SD), A-549), 19.6 µM. Besides, the IC50 in experiment [9] (Homo sapiens, MTT assay, PC-3, read-out: IC50 (±SD), PC-3) is 6.22 µM; in experiment [10] (Homo sapiens, MTT assay, KB), 19.7 µM; in experiment [12] (Homo sapiens, SK-OV-3, MTT assay, SKOV-3, read-out: IC50 (±SD), SKOV-3) it was 6.95 µM; in [13], 2.5 µM; in [14] it was 3.4 µM; in experiment [15], 3.4 µM. For the same compound, the “anticancer IC50 (T-47D)” value in [2] (ref 49) is 32.4 µg/mL. For the same compound, the “Trolox Equivalent, DPPH Assay” value in [3] was 0.01077 mg/mL and 0.01077 ± 0.000446 mg/mL. In addition, the “Trolox Equivalent, CUPRAC Assay” value in experiment [4] is 0.299 mg/mL and 0.299 ± 0.00663 mg/mL. Besides, in [6], the “anticancer IC50 (SW-707)” value is recorded as 22.9 µg/mL. Further, the “Selectivity index (SI), A-549” value in experiment [8] (IC50 HDF / IC50 A-549) worked out at 0.81. In experiment [9] (IC50 HDF / IC50 PC-3), the “Selectivity index (SI), PC-3” value is 2.54. Also, in experiment [10] (IC50 HDF / IC50 KB), the “Selectivity index (SI), KB” value turned out to be 0.80. Further, the “Apoptotic index (AI), PC-3” value in [11] was 5.82 (0.03). Also, the “Selectivity index (SI), SKOV-3” value in experiment [12] (IC50 HDF / IC50 SKOV-3) is reported as 2.27.
